# According to ChEMBL document CHEMBL3507680, “University of Dundee, Gates Library screen for HepG2 cell viability”:
# Experiment: Human HepG2 cell viability assay in 384 well format
# Type: toxicity, cell-based
# Design: dose 125 nL, time 70.5 hour; cytotoxicity at 70.5 h: concentration not given beside the values
# Conditions: HepG2 cells, read-out: Inhibition
row,Structure (SMILES),cytotoxicity at 70.5 h
1,COc1cc(OC)nc(N2CCCC(c3nccn3CCN(C)C)C2)n1 (configuration not stated),30.4%
2,CCc1nc(C2CCCN2C(=O)c2ccc3c(c2)nnn3C)no1 (configuration not stated),16.3%
3,CCN1Cc2nc(OC)c(CNC(=O)CCC3CCCC3)cc2C1=O,-11.1%
4,c1cc(CNCc2ccnc(N3CCOCC3)c2)c2c(c1)OCO2,-8.43%
5,COc1ccccc1C(C#N)NC(=O)c1cccc2c1oc(=O)n2C (configuration not stated),-6.2%
6,Cc1ccc(C(=O)NCc2ccc(N3CCCC(C(N)=O)C3)cc2)o1 (configuration not stated),-14.6%
7,CC(C)(C)OC(=O)N1CC(=O)N(CCc2ccccc2)CC(O)C1 (configuration not stated),30.2%
8,CC(CN1CCOCC1)NCC1CCN(c2cnn(C)c(=O)c2)CC1 (configuration not stated),-4.8%
9,COc1ccc2c(O)c(NC(=O)NCC3CC3)cnc2c1,9.51%
10,NC(=O)C(Nc1ccc(Cl)cc1)c1ccc(F)cc1 (configuration not stated),-0.513%
11,CCn1nc(C)c(NC(=O)CN(C)C(C)c2ccon2)c1C (configuration not stated),3.79%
12,Cn1cc(NC(=O)N2CCCC2c2ccccn2)ccc1=O (configuration not stated),-5.4%
13,O=C(NCc1nnc2n1CCCCC2)N1CCc2ccccc2C1,1.11%
14,Cc1nc(C(=O)N2CCCC(c3cc(C(F)(F)F)[nH]n3)C2)c[nH]1 (configuration not stated),-6.23%
15,COCCN1CCC2(COCCN(Cc3ccc4c(c3)OCO4)C2)C1 (configuration not stated),-9.54%
16,COc1ccc(CN(C)[C@@H]2COC[C@H]2c2ccc(F)cc2)cc1,-10.1%
17,Cc1cccc(CN2C[C@H](OCc3csc(C)n3)[C@H]3COC[C@H]32)n1,-3.75%
18,CCC(C)NS(=O)(=O)c1ccc(/C=C\c2onc(C)c2NC(C)=O)cc1 (configuration not stated),-4.12%
19,COc1ccc(C)cc1S(=O)(=O)NCC(c1cccn1C)N(C)C (configuration not stated),-3.74%
20,Cc1nc(CN2C(=O)C[C@@H]3[C@@H]2CCN3S(=O)(=O)C2CC2)cs1,19.1%
21,Cc1nnsc1C(=O)NCc1nn(C2CCCC2)c2c1CCCC2,-5.38%
22,CC1CN(c2cc(CNCc3cccc4c3OCCO4)ccn2)CCO1 (configuration not stated),-10.3%
23,O=C1OCCN1Cc1ncnn1Cc1c(F)cccc1Cl,11.9%

row,Structure (SMILES),cytotoxicity at 70.5 h
1,CC1CCCCN1C(=O)c1nc2c(n1C(C)C)CCN(C(=O)C1CC1)C2 (configuration not stated),-8.72%
2,CC(C)c1nnc(NC(=O)NCc2ccnc(N(C)C)c2)s1,-19.1%
3,CN1CCC(Oc2ccc(-n3ccnc3-c3nccn3C)cc2)CC1,-8.7%
4,Cc1cc(-c2cnc(NC3CC3)nc2-c2ccoc2C)on1,-5.1%
5,CN(C)c1ccc(C(CNS(=O)(=O)c2cccs2)N2CCCC2)cc1 (configuration not stated),-2.5%
6,Cc1nn(C2CCS(=O)(=O)C2)c(O)c1Cc1cccc(Cl)c1 (configuration not stated),-17.9%
7,CCOc1ccccc1CSc1nnc(CC2CCS(=O)(=O)C2)n1C (configuration not stated),-11.4%
8,CCCc1nc(C)c(C(=O)NC2CCN(c3ncccn3)CC2)s1,-9.16%
9,Cc1cn2c(n1)CCC(NC(=O)c1cc(Br)cn1C)C2 (configuration not stated),1.7%
10,C1CC(NCc2nnc(C3CC3)o2)CN(Cc2noc(C3CC3)n2)C1 (configuration not stated),-7.51%
11,Cc1cc(CN2C[C@@H]3COC[C@]3(CNC(=O)N3CCCC3)C2)no1,0.0997%
12,CC(C)OCCN1CCN(C(=O)c2cccc(-n3cccn3)n2)CC1,-0.664%
13,Cc1nc(N2CCCC2)nc2c1CCN(C(=O)C1CCCC1)CC2,-9.52%
14,CCn1cc2c(n1)CN(Cc1ccncc1)CC2COCC1CC1 (configuration not stated),-17.6%
15,Cc1cc(S(=O)(=O)NCC2CNCCOC2)c(C)cc1Cl (configuration not stated),1.99%
16,O=C(O)[C@@H]1CN(C(=O)CCCc2ccc(F)cc2)C[C@H]1C1CC1,-5.36%
17,Cc1n[nH]c(C)c1CC(=O)NCCc1ccccc1,14.3%
18,Cc1noc(C(C)N2CCN(CCOCC(F)(F)F)CC2)n1 (configuration not stated),27.9%
19,CC[C@@H](CO)NC(=O)c1coc(COc2ccc(OC)cc2)n1,-13%
20,CCc1noc(C2CCCCN2C(=O)c2ccc3c(c2)OCO3)n1 (configuration not stated),-4.04%
21,CCc1ccccc1OC1CN(C(=O)c2sccc2N)C1,-3.46%
22,Cc1cnn(-c2ccc(S(N)(=O)=O)cc2F)c1,20%
23,Cc1ccsc1C(=O)NCc1ccnc(N2CCN(C)CC2)c1,-8.63%

row,Structure (SMILES),cytotoxicity at 70.5 h
1,O=C(NCCc1cc(N2CCOCC2)nc(N2CCCC2)n1)C1CC1,-5.52%
2,Cc1cccc(CN2C[C@@H]3OCCN(S(=O)(=O)N(C)C)[C@@H]3C2)n1,-6.13%
3,CN1CCN(CC2CCN(C(=O)CCC3CCCCC3)CC2)CC1,-2.91%
4,Cc1nnc(CN2C[C@H](NC(=O)CC3CCCC3)[C@@H](C3CC3)C2)s1,-7.74%
5,Cc1cccc(C(=O)N2CCCC(c3noc(C)n3)C2)n1 (configuration not stated),-1.99%
6,COCCN1CC2(CCC1=O)CCN(Cc1cc(F)ccc1Cl)CC2,6.46%
7,COc1ccc(N2CCN(C(=O)COc3c(C)occc3=O)CC2)cc1,2.1%
8,Cc1cc2c(=O)n3c(nc2s1)CCN(C(=O)c1scnc1C)CC3,-12.5%
9,O=C(CCCNC(=O)C1CC1)Nc1cnn(-c2ccccc2Cl)c1,-1.38%
10,Cc1cc(NCCS(C)(=O)=O)n2nc(C)cc2n1,4.45%
11,Cc1noc([C@H]2C[C@@H]3CCN(c4nnc(C)s4)C[C@H]3O2)n1,-8.11%
12,Cc1nn(C)c2cnn(CC(=O)NCc3ccc(F)cc3)c12,12.4%
13,CN(C)CCN(C)c1nc(CCc2ccccc2)nc2c1cnn2C,-1.09%
14,N#Cc1cnn(C(=O)CCCOc2ccccc2Cl)c1N,9.75%
15,Cn1ccc(C2CCCCN2C(=O)c2cccc(-n3cccn3)c2)n1 (configuration not stated),10.7%
16,CC(NC(=O)Cn1cccn1)c1ccc2c(c1)OCCO2 (configuration not stated),-11.1%
17,CCNC(=O)CCC(=O)NC(Cc1ccccc1)c1sccc1C (configuration not stated),-7.03%
18,CCc1cc(NCCNC(=O)c2cccnc2)n2nc(C)c(C)c2n1,21%
19,Cn1cnnc1S(=O)(=O)C1CCN(S(=O)(=O)c2ccc(F)c(Cl)c2)CC1,-5.73%
20,COc1ccccc1-c1ncc(CN2C[C@H](O)[C@@H](N3CCCC3)C2)s1,-14.6%
21,Cc1nc(C)n(C2CCCN(C(=O)c3ccc(CN(C)C)cc3)C2)n1 (configuration not stated),-4.23%
22,CCn1c(CN(C)C)nnc1C1CCN(Cc2cccc(OC)c2)CC1,4.9%
23,COc1ccc(CN(Cc2c[nH]cn2)CC2CCCO2)c(OC)c1 (configuration not stated),-3.26%

row,Structure (SMILES),cytotoxicity at 70.5 h
1,CC(C)C1CN(Cc2cnc(N(C)C)nc2)CCCN1CC1CC1 (configuration not stated),-10%
2,Cc1ccc(-c2nc(CN3CCN(S(=O)(=O)N(C)C)CC3)cs2)o1,1.51%
3,O=C(NCCc1cc(F)ccc1F)NCC(O)C1CC1 (configuration not stated),11.6%
4,Cn1cc(CN2CCc3nc4sccc4c(=O)n3CC2)cn1,-3.58%
5,Cc1csc(CN2C[C@@H]3CN(S(C)(=O)=O)CCO[C@@H]3C2)n1,5.33%
6,Cc1cc(NCCO)nc(N2CCN(C)CC2)c1C#N,1.33%
7,CC(CNS(N)(=O)=O)c1ccc(F)c(F)c1 (configuration not stated),3.38%
8,COc1ccc(C(O)CNC(=O)NCc2nc(C)cs2)cc1 (configuration not stated),-3.39%
9,CCN(CC)C(=O)Cn1c(-c2ccc(Cl)cc2)nc(C)c(CCO)c1=O,0.81%
10,O=C(C1CC(c2cccc(F)c2)=NO1)N1CCc2ccccc21 (configuration not stated),-4.18%
11,COc1cc(CNCc2ccnc(N3CCCCC3)c2)cc(OC)c1,4.65%
12,O=C(Nc1ccc2ncsc2c1)N1CCCN([C@H]2COC[C@@H]2O)CC1,0.731%
13,CCc1nc(CN(C)C(=O)C2CC(=O)N(c3cccc(O)c3)C2)no1 (configuration not stated),3.57%
14,CN(C)C(=O)c1cnc2n1CCN(Cc1cccc(C#N)c1)C2,-7.44%
15,O=C(c1cccc(O)c1)N1CCC2(CCN2c2ncccn2)C1 (configuration not stated),2.82%
16,CCC(=O)N1CCC(Oc2ccc(C(=O)NCCN(C)C)cc2Cl)CC1,7.41%
17,Cc1cc(C2CCCN2C(=O)CN2C(=O)OC(C)(C)C2=O)on1 (configuration not stated),-2.6%
18,O=C(O)CCc1cccc(C2CCCN2Cc2cccc(Cl)c2)n1 (configuration not stated),-0.284%
19,c1cnnc(N2CCCC(NCc3nc(-c4ccco4)no3)C2)c1 (configuration not stated),46.2%
20,O=C(Cc1cn2ccsc2n1)N1CCCC(n2ccnc2)C1 (configuration not stated),-2.03%
21,CCc1ncc2c(n1)CN(Cc1nnc(CC)o1)CC2,-79.4%
22,O=C(CCN1CCCCO1)NCc1cn2c(n1)SCC2,-0.977%
23,Cc1cn2c(n1)CCC(NC(=O)c1c[nH]c(C)n1)C2 (configuration not stated),-5.66%

row,Structure (SMILES),cytotoxicity at 70.5 h
1,CC(=O)NC(C)C(=O)N(Cc1ccc(C)c(C)c1)C1CC1 (configuration not stated),0.332%
2,CN(Cc1ccccc1)C(=O)c1nc(S(C)(=O)=O)n2ccccc12,31.2%
3,O=C(O)c1ccc2c(c1)C1(CCCCC1)CN2C(=O)c1cccs1,-4.48%
4,CN(C)C(C(=O)NCC1(C)COC1)c1cccc(F)c1 (configuration not stated),-3.06%
5,CN(C1CCN(c2ccccn2)CC1)S(=O)(=O)c1cccs1,-8.7%
6,CN1CCC(Oc2ccc(NC(=O)c3ccccc3)cc2)CC1,-9.56%
7,Cc1nc(C2CCCN2CCCS(=O)(=O)N(C)C)no1 (configuration not stated),22.2%
8,CCc1cc(CNC(=O)c2cc(NC(=O)C(C)C)ccc2Cl)[nH]n1,-9.06%
9,CC1CCN(S(=O)(=O)N2CCn3cccc3C2C)CC1 (configuration not stated),-4.61%
10,COCCN(C)[C@@H]1c2ccccc2C2(CCNCC2)[C@H]1O,-4.67%
11,CCOc1cc(/C=C/c2ncc(C(=O)O)s2)cc(Cl)c1OC,9.41%
12,O=C(NCCCN1CCN(c2ncccn2)CC1)Nc1ccccn1,-2.48%
13,CCCN(C)c1ccc(C(=O)NCc2ccnc(C)n2)cc1,-10%
14,O=C(Cc1ccsc1)N1C[C@@H]2OCCN(c3cnccn3)[C@@H]2C1,12.1%
15,COCCNc1nc2c(c(NCc3ccncc3)n1)CCNCC2,-7.33%
16,CCCS(=O)(=O)CCN1CCN(c2cc(F)ccc2F)CC1,2.83%
17,CN(C)[C@H]1CCCCN(Cc2cnc(NCc3ccccc3)nc2)C1,-1.39%
18,C=C(C)COc1cccc(CNC(COC)c2ccnn2C)c1 (configuration not stated),2.53%
19,O=C(NCc1ccco1)C1CCCN1Cc1nc(-c2ccco2)no1 (configuration not stated),-15.9%
20,c1csc(N2CCCN(Cc3nc(C4CC4)no3)CC2)n1,-15.8%
